Several values for one entry are separate records, joined by “and”; a condition that tells them apart may be missing. Equal entries are not always repeated.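 1) Cells in 96-well plates. 2) Compound, 48 h, 5 concentrations. 3) Linear interpolation between surrounding doses. 4) Unreached endpoint = highest concentration. GI50: concentration for 50% inhibition of growth. Definition used: TGI = concentration required for complete inhibition of growth.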
Tests used:
Assay in all cases: growth of human tumour cells (NCI), 48 h
NCI-H23 lung = tested on: NCI-H23 lung
K-562 leukemia = tested on: K-562 leukemia
SF-539 CNS = tested on: SF-539 CNS
CCRF-CEM leukemia = tested on: CCRF-CEM leukemia
U251 CNS = tested on: U251 CNS
COLO 205 colon = tested on: COLO 205 colon
HCT-15 colon = tested on: HCT-15 colon
HCT-116 colon = tested on: HCT-116 colon
MDA-MB-435 = tested on: MDA-MB-435
HS 578T breast = tested on: HS 578T breast

Row | SMILES | TGI (NCI-H23 lung) [µM] | TGI (K-562 leukemia) [µM] | TGI (SF-539 CNS) [µM] | TGI (CCRF-CEM leukemia) [µM] | TGI (U251 CNS) [µM] | TGI (COLO 205 colon) [µM] | TGI (HCT-15 colon) [µM] | TGI (HCT-116 colon) [µM] | GI50 (NCI-H23 lung) [µM] | GI50 (COLO 205 colon) [µM] | GI50 (K-562 leukemia) [µM] | GI50 (SF-539 CNS) [µM] | GI50 (HCT-15 colon) | GI50 (CCRF-CEM leukemia) | GI50 (HCT-116 colon) [µM] | GI50 (U251 CNS) [µM] | GI50 (MDA-MB-435) [µM] | TGI (MDA-MB-435) [µM] | GI50 (HS 578T breast) [µM] | TGI (HS 578T breast) [µM]
1 | O=c1cc2n(c(=O)[nH]1)C1OC(C(O)C1O)[C@@H]2CCO (stereo partly drawn) | > 100 | > 100 | > 100 | > 100 | > 100 |  |  |  |  |  |  |  |  |  |  |  |  |  |  | 
2 | O=C(NC1CCCCC1)c1c(O)[nH]c(=S)[nH]c1=O | > 100 |  | > 100 | > 100 | > 100 | > 100 | > 100 | > 100 |  |  |  |  |  |  |  |  |  |  |  | 
3 | CC(=O)[CH-]C(=O)c1ccccc1.CC(=O)[CH-]C(=O)c1ccccc1.[Nd+3].[OH-].[OH3+] | > 100 | > 100 | > 100 | > 100 | > 100 | > 100 | > 100 | > 100 | > 100 | > 100 | > 100 | > 100 | > 100 µM | > 100 µM | > 100 | > 100 |  |  |  | 
4 | [Cu+2].[Cu+2].[O-]c1ccccc1C=Nc1ccccc1[O-].[O-]c1ccccc1C=Nc1ccccc1[O-] | 4.85 | 52.9 | 25.9 | 21.3 |  | 5.11 | 21.5 | 6.55 | 1.96 | 2.26 | 4.07 | 13.2 | 7.25 µM | 3.33 µM | 2.47 |  |  |  |  | 
5 | CCCCN(CC)C(=O)C(=O)C1C(=O)Nc2ccccc2S1=O (stereo not drawn) | > 100 | > 100 | > 100 | > 100 | > 100 | > 100 | > 100 | > 100 |  |  |  |  |  |  |  |  |  |  |  | 
6 | COc1nc(OC)c2c(=O)oc(-c3ccccc3)cc2n1 | > 100 | > 100 | > 100 |  | > 100 |  | > 100 | > 100 |  |  |  |  |  |  |  |  |  |  |  | 
7 | CCc1nc2c(O)ccc(O)c2nc1C | 33.4 | > 20.8 | 31.4 | > 22.3 | 30.2 | 7.26 | 30.6 | 20.9 |  |  |  |  |  |  |  |  |  |  |  | 
8 | O=C(O)CSc1n[nH]c(/C=C/c2ccccc2)n1 | > 100 | > 100 | > 100 | > 100 | > 100 | > 100 | > 100 | > 100 |  |  |  |  |  |  |  |  |  |  |  | 
9 | COC(=O)N1[C@H]2Cc3c(OC)c(C)c(OC)c(OC)c3[C@@H]1/C(=C\c1cc(OC)c(OC)c(C)c1OC)N(Cc1ccccc1)C2=O | > 100 | > 100 | > 100 | > 100 | > 100 | 32 |  | > 100 |  |  |  |  |  |  |  |  |  |  |  | 
10 | COC(=O)c1cnc2nc(N3CCOCC3)[nH]n2c1=O | > 100 | > 100 | > 100 | > 100 | > 100 | > 100 | > 100 | > 100 |  |  |  |  |  |  |  |  |  |  |  | 
11 | C=C1C(=O)O[C@@H]2C[C@]3(C)[C@@H](C[C@H]12)[C@](C)(O)CC[C@@H]3O | > 100 | > 100 | > 100 | > 100 | > 100 | > 100 | > 100 | > 100 |  |  |  |  |  |  |  |  |  |  |  | 
12 | CC(NC(=O)c1ccccc1)C(=O)N(Cc1ccccc1)Cc1ccccc1 (stereo not drawn) | 60.4 | 43.5 | > 100 | 47.1 | 91.7 | 40.8 | 88.9 | 66 |  |  |  |  |  |  |  |  |  |  |  | 
13 | CN(C(=O)C1CCCCC1)c1ccccc1I(=O)=O | > 100 | 27.4 | > 100 | 38 | > 100 | 29.8 | 59.2 |  | 45.2 | 14.6 | 12.5 | 39.2 | 23.3 µM | 17.6 µM |  | 31.3 | 41.4 | > 100 | 52.9 | > 100
14 | Cc1c(/C=C2\CC/C(=C\c3[nH]c(C(=O)OC(C)(C)C)c(C)c3C)C2=O)[nH]c(C(=O)OC(C)(C)C)c1C | > 100 | > 100 | > 100 | > 100 | > 100 | > 100 | > 100 | > 100 |  |  |  |  |  |  |  |  |  |  |  | 
15 | COc1ccc(CNc2cc(OC)cc(OC)c2)cc1 | > 100 | > 100 | > 100 | > 100 | > 100 | > 100 | > 100 | > 100 |  |  |  | > 90.2 | > 100 µM and 46.6 µM | 78.7 µM and 28.6 µM |  |  |  |  |  | 
16 | COC(=O)OCC1OC(N2C(=O)NC(=O)C(I)C2N=[N+]=[N-])CC1OC(=O)OC (stereo not drawn) | > 100 | > 100 | > 100 | > 100 | > 100 | > 100 | > 100 | > 100 |  |  |  |  |  |  |  |  |  |  |  | 

Reference: PubChem BioAssay (NCI)
